Molecules are shown by their SMILES. pIC50: −log10 of the molar value.

The target of the experiment is human adenosine A2a receptor (Homo sapiens (Human), UniProt P29274). Briefly: A2a receptor binding affinity, [3H]-NECA radioligand binding test. To be noted: [3H]-NECA 37 nM; membrane from HEK-293 cells transfected with human adenosine A2a receptor. The essentials: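 IC50 values (μM) come from displacement of [3H]-NECA, used at 37 nM final, on human A2a receptor membranes from transfected HEK-293 cells. Incubation lasted one hour at room temperature in Tris/MgCl2/EDTA buffer, pH 7.4; filter-bound radioactivity was counted by scintillation.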
Sequence of human adenosine A2a receptor (P29274 whole entry): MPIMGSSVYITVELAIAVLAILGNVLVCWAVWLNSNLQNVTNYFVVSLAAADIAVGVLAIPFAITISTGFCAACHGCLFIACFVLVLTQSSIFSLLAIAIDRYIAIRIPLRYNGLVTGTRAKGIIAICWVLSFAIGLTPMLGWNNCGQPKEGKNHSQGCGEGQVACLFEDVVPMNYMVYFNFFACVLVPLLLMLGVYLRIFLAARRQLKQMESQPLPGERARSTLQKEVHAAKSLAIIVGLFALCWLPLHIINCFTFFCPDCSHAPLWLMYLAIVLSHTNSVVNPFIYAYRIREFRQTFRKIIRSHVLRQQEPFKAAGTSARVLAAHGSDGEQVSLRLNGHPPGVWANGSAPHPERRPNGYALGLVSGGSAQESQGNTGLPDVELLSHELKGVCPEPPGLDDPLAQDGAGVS
In general, pIC50 refers to the negative decadic logarithm of the IC50, by convention in mol/L. `Nc1nc(N[C@H](C(=O)N2CCN(CC(F)F)CC2)C2CC2)nc2nc(-c3ccco3)nn12` [Example 354, (S)-2-((7-amino-2-(furan-2-yl)-[1,2,4]triazolo[1,5-a][1,3,5]triazin-5-yl)amino)-2-cyclopropyl-1-(4-(2,2-difluoroethyl)piperazin-1-yl)ethan-1-one]: the pIC50 is 7.66.

Compound `CC(C)[C@H](Nc1nc(N)n2nc(-c3ccco3)nc2n1)C(=O)N1CCN(CC(F)F)CC1` [Example 355, (S)-2-((7-amino-2-(furan-2-yl)-[1,2,4]triazolo[1,5-a][1,3,5]triazin-5-yl)amino)-1-(4-(2,2-difluoroethyl)piperazin-1-yl)-3-methylbutan-1-one] had a pIC50 of 7.85.

The compound `CC[C@H](Nc1nc(N)n2nc(-c3ccco3)nc2n1)C(=O)N1CCN(CC(C)(F)F)CC1` [Example 356, (S)-2-((7-amino-2-(furan-2-yl)-[1,2,4]triazolo[1,5-a][1,3,5]triazin-5-yl)amino)-1-(4-(2,2-difluoropropyl)piperazin-1-yl)butan-1-one] gave a pIC50 of 8.00.

Turning to `CC(F)(F)CN1CCN(C(=O)[C@@H](Nc2nc(N)n3nc(-c4ccco4)nc3n2)C2CC2)CC1` [Example 357, (S)-2-((7-amino-2-(furan-2-yl)-[1,2,4]triazolo[1,5-a][1,3,5]triazin-5-yl)amino)-2-cyclopropyl-1-(4-(2,2-difluoropropyl)piperazin-1-yl)ethan-1-one], the pIC50 was 8.05.

`CC[C@H](Nc1nc(N)n2nc(-c3ccco3)nc2n1)C(=O)N1CCN(CC(F)(F)C(F)F)CC1` [Example 358, (S)-2-((7-amino-2-(furan-2-yl)-[1,2,4]triazolo[1,5-a][1,3,5]triazin-5-yl)amino)-1-(4-(2,2,3,3-tetrafluoropropyl)piperazin-1-yl)butan-1-one]: the pIC50 is 8.00.

Compound `Nc1nc(N[C@H](C(=O)N2CCN(CC(F)(F)C(F)F)CC2)C2CC2)nc2nc(-c3ccco3)nn12` [Example 359, (S)-2-((7-amino-2-(furan-2-yl)-[1,2,4]triazolo [1,5-a][1,3,5]triazin-5-yl)amino)-2-cyclopropyl-1-(4-(2,2,3,3-tetrafluoropropyl)piperazin-1-yl)ethan-1-one] had a pIC50 of 8.30.

Regarding `CC(C)[C@H](Nc1nc(N)n2nc(-c3ccco3)nc2n1)C(=O)N1CCN(CC(C)(F)F)CC1` [Example 360, (S)-2-((7-amino-2-(furan-2-yl)-[1,2,4]triazolo[1,5-a][1,3,5]triazin-5-yl)amino)-1-(4-(2,2-difluoropropyl)piperazin-1-yl)-3-methylbutan-1-one], the pIC50 is 8.00.

As to `CCCCN1CCN(C(=O)[C@@H]2CCCN2c2cc3nc(-c4ccco4)nn3c(N)n2)CC1` [Example 361, (S)-(1-(5-amino-2-(furan-2-yl)-[1,2,4]triazolo[1,5-c]pyrimidin-7-yl)pyrrolidin-2-yl)(4-butylpiperazin-1-yl)methanone], the pIC50 is 8.05.

`Nc1nc(N2CCC[C@H]2C(=O)N2CCC3(CC2)CN(CC(F)(F)F)C3)nc2nc(-c3ccco3)nn12` [Example 362, (S)-(1-(7-amino-2-(furan-2-yl)-[1,2,4]triazolo[1,5-a][1,3,5]triazin-5-yl)pyrrolidin-2-yl)(2-(2,2,2-trifluoroethyl)-2,7-diazaspiro[3.5]nonan-7-yl)methanone] gave a pIC50 of 7.52.

With `Nc1nc(N2CCC[C@H]2C(=O)N2CC3(CCN(CC(F)(F)F)CC3)C2)nc2nc(-c3ccco3)nn12` [Example 363, (S)-(1-(7-amino-2-(furan-2-yl)-[1,2,4]triazolo[1,5-a][1,3,5]triazin-5-yl)pyrrolidin-2-yl)(7-(2,2,2-trifluoroethyl)-2,7-diazaspiro[3-5]nonan-2-yl)methanone], the pIC50 was 7.92.

For the compound `CC(F)(F)CN1CC2(CCN(C(=O)[C@@H]3CCCN3c3nc(N)n4nc(-c5ccco5)nc4n3)CC2)C1` [Example 364, (S)-(1-(7-amino-2-(furan-2-yl)-[1,2,4]triazolo[1,5-a][1,3,5]triazin-5-yl)pyrrolidin-2-yl)(2-(2,2-difluoropropyl)-2,7-diazaspiro[3.5]nonan-7-yl)methanone], the pIC50 is 7.92.

Regarding `CC(F)(F)CN1CCC2(CC1)CN(C(=O)[C@@H]1CCCN1c1nc(N)n3nc(-c4ccco4)nc3n1)C2` [Example 365, (S)-(1-(7-amino-2-(furan-2-yl)-[1,2,4]triazolo[1,5-a][1,3,5]triazin-5-yl)pyrrolidin-2-yl)(7-(2,2-difluoropropyl)-2,7-diazaspiro[3-5]nonan-2-yl)methanone], the negative logarithm of the IC50 (pIC50) is 7.89.

`C[C@H](Nc1nc(N)n2nc(-c3ccco3)nc2n1)C(=O)N1CC2(CCN(CC(C)(F)F)CC2)C1` [Example 366, (S)-2-((7-amino-2-(furan-2-yl)-[1,2,4]triazolo[1,5-a][1,3,5]triazin-5-yl)amino)-1-(7-(2,2-difluoropropyl)-2,7-diazaspiro[3-5]nonan-2-yl)propan-1-one] had a pIC50 of 8.10.

In the case of `CC(C)[C@H](Nc1nc(N)n2nc(-c3ccco3)nc2n1)C(=O)N1CCN(CCC(F)(F)F)CC1` [Example 367, (S)-2-((7-amino-2-(furan-2-yl)-[1,2,4]triazolo[1,5-a][1,3,5]triazin-5-yl)amino)-3-methyl-1-(4-(3,3,3-trifluoropropyl)piperazin-1-yl)butan-1-one], the pIC50 was 7.85.

In the case of `CC[C@H](Nc1nc(N)n2nc(-c3ccco3)nc2n1)C(=O)N1CCN(C(=O)CC(C)(C)O)CC1` [Example 368, (S)-1-(4-(2-((7-amino-2-(furan-2-yl)-[1,2,4]triazolo[1,5-a][1,3,5]triazin-5-yl)amino)butanoyl)piperazin-1-yl)-3-hydroxy-3-methylbutan-1-one], the pIC50 was 8.52.

In turn, `CC(C)[C@H](Nc1nc(N)n2nc(-c3ccco3)nc2n1)C(=O)N1CCN(C(=O)CC(C)(C)O)CC1` [Example 369, 1-(4-((7-amino-2-(furan-2-yl)-[1,2,4]triazolo[1,5-a][1,3,5]triazin-5-yl)-L-valyl)piperazin-1-yl)-3-hydroxy-3-methylbutan-1-one] showed a pIC50 of 7.85.

Compound `CC(C)(O)CC(=O)N1CCN(C(=O)[C@@H](Nc2nc(N)n3nc(-c4ccco4)nc3n2)C2CC2)CC1` [Example 370, (S)-1-(4-(2-((7-amino-2-(furan-2-yl)-[1,2,4]triazolo[1,5-a][1,3,5]triazin-5-yl)amino)-2-cyclopropylacetyl)piperazin-1-yl)-3-hydroxy-3-methylbutan-1-one] showed a pIC50 of 8.40.

In turn, `C[C@@H]1CN(CC(F)F)CCN1C(=O)[C@@H]1CCCN1c1nc(N)n2nc(-c3ccco3)nc2n1` [Example 371, ((S)-1-(7-amino-2-(furan-2-yl)-[1,2,4]triazolo[1,5-a][1,3,5]triazin-5-yl)pyrrolidin-2-yl)((R)-4-(2,2-difluoroethyl)-2-methylpiperazin-1-yl)methanone] gave a pIC50 of 7.96.

For `C[C@@H]1CN(CC(C)(F)F)CCN1C(=O)[C@@H]1CCCN1c1nc(N)n2nc(-c3ccco3)nc2n1` [Example 372, ((S)-1-(7-amino-2-(furan-2-yl)-[1,2,4]triazolo[1,5-a][1,3,5]triazin-5-yl)pyrrolidin-2-yl)((R)-4-(2,2-difluoropropyl)-2-methylpiperazin-1-yl) methanone], the pIC50 is 9.00.

For `C[C@@H]1CN(CC(C)(C)O)CCN1C(=O)[C@@H]1CCCN1c1nc(N)n2nc(-c3ccco3)nc2n1` [Example 373, ((S)-1-(7-amino-2-(furan-2-yl)-[1,2,4]triazolo[1,5-a][1,3,5]triazin-5-yl)pyrrolidin-2-yl)((R)-4-(2-hydroxy-2-methylpropyl)-2-methylpiperazin-1-yl)methanone], the pIC50 is 8.70.

Regarding `C[C@@H]1CN(CC(C)(C)F)CCN1C(=O)[C@@H]1CCCN1c1nc(N)n2nc(-c3ccco3)nc2n1` [Example 374, ((S)-1-(7-amino-2-(furan-2-yl)-[1,2,4]triazolo[1,5-a][1,3,5]triazin-5-yl)pyrrolidin-2-yl)((R)-4-(2-fluoro-2-methylpropyl)-2-methylpiperazin-1-yl) methanone], the pIC50 was 9.10.

`C[C@H](Nc1cc2nc(-c3ccco3)nn2c(N)n1)C(=O)N1CCN(CC(C)(C)F)CC1` [Example 375, (S)-2-((5-amino-2-(furan-2-yl)-[1,2,4]triazolo[1,5-c]pyrimidin-7-yl)amino)-1-(4-(2-fluoro-2-methylpropyl)piperazin-1-yl)propan-1-one] had a pIC50 of 8.10.

In turn, `Nc1nc(N2CCC[C@H]2C(=O)N2CCC(C3CCN(CC(F)(F)F)CC3)CC2)cc2nc(-c3ccco3)nn12` [Example 376, (S)-(1-(5-amino-2-(furan-2-yl)-[1,2,4]triazolo[1,5-c]pyrimidin-7-yl)pyrrolidin-2-yl)(1′-(2,2,2-trifluoroethyl)-[4,4′-bipiperidin]-1-yl)methanone] gave a pIC50 of 9.00.

As to `Nc1nc(N2CC[C@H]2C(=O)N2CCC(C3CCN(CC(F)(F)F)CC3)CC2)cc2nc(-c3ccco3)nn12` [Example 377, (S)-(1-(5-amino-2-(furan-2-yl)-[1,2,4]triazolo[1,5-c]pyrimidin-7-yl)azetidin-2-yl)(1′-(2,2,2-trifluoroethyl)-[4,4′-bipiperidin]-1-yl)methanone], the pIC50 was 10.00.

`Nc1nc(N2CC[C@H]2C(=O)N2CCC(C3CCN(CC(F)F)CC3)CC2)cc2nc(-c3ccco3)nn12` [Example 378, (S)-(1-(5-amino-2-(furan-2-yl)-[1,2,4]triazolo[1,5-c]pyrimidin-7-yl)azetidin-2-yl)(1′-(2,2-difluoroethyl)-[4,4′-bipiperidin]-1-yl)methanone] showed a negative logarithm of the IC50 (pIC50) of 9.15.

As to `CC(F)(F)CN1CCC(C2CCN(C(=O)[C@@H]3CCN3c3cc4nc(-c5ccco5)nn4c(N)n3)CC2)CC1` [Example 379, (S)-(1-(5-amino-2-(furan-2-yl)-[1,2,4]triazolo[1,5-c]pyrimidin-7-yl)azetidin-2-yl)(1′-(2,2-difluoropropyl)-[4,4′-bipiperidin]-1-yl)methanone], the pIC50 is 8.70.

The values above are taken from patent US20240217978A1 (CHONG KUN DANG PHARMACEUTICAL CORP., priority 2021, published 2024).
